Test systems include Escherichia coli DC2; Escherichia coli D31; Shigella flexneri CP87; Escherichia coli K-12; Escherichia coli BL21AI; Spiroplasma citri R8A2; Candida albicans; Micrococcus luteus A270; Bacillus megaterium MA; Aspergillus fumigatus.
Test in all cases: ≥ marks a high value that may be exact or a test limit, other limits are often not marked, values filed in µg/mL are converted to µM
For test [1], the system named is Klebsiella pneumoniae DSM 681.
Test [2] deals with Clavibacter michiganensis subsp. insidiosus NCPPB 1109.
The test system of test [3] is Salmonella enterica subsp. enterica serovar Newport.
The subject of test [4] is Escherichia coli NCTC 9001.
Test [5] deals with Brenneria salicis NCPPB 2530.
Test [6] relates to Salmonella typhimurium ATCC 23565.
Test [7] relates to Escherichia coli DSM 10233.
Test [8] concerns Escherichia coli DSM 1103.
The subject of test [9] is Pseudomonas syringae pv. tomato NCPPB 1106.
The test system of test [10] is Bacillus subtilis DSM 347.
The test system of test [11] is Micrococcus luteus ATCC 10240.
Test [12] relates to Salmonella enterica subsp. enterica serovar Typhimurium ATCC 700408.
Test [13] has as its system Klebsiella pneumoniae K6 ATCC 700603.
The test system of test [14] is Agrobacterium tumefaciens DSM 3129.
Test [15] relates to Sinorhizobium meliloti ZB314.
In test [16] the test system is Staphylococcus aureus USA 300.
The subject of test [17] is Bacillus megaterium QMB 1551.
Test [18] concerns Acholeplasma laidlawii A-EF22.
Test [19] concerns Fusarium oxysporum MUCL 909.
For test [20], the system named is Alternaria brassicicola MUCL 20297.
The subject of test [21] is Neurospora crassa CBS 327-54.
The subject of test [22] is Fusarium culmorum MUCL 30162.
Test [23] relates to Fusarium haematococcum 160.2.2.
Test [24] deals with Saccharomyces cerevisiae TGY 481 pJM600.
Test [25] concerns Staphylococcus aureus 930918-3.
Test [26] relates to Staphylococcus aureus ATCC 33591.

Structures are written as SMILES. In brackets after ≈: the same amount, converted by molar mass. Several values for one entry are separate records, joined by “and”; a condition that tells them apart may be missing. Equal entries are not always repeated. Where only a bound is given, the exact number is not on record here.

Turning to `CC[C@H](C)[C@H](NC(=O)[C@H](CCCNC(=N)N)NC(=O)[C@@H]1CCCN1C(=O)[C@H](Cc1cnc[nH]1)NC(=O)[C@@H]1CCCN1C(=O)[C@@H]1CCCN1C(=O)[C@H](CCCNC(=N)N)NC(=O)[C@@H]1CCCN1C(=O)[C@H](CCC(N)=O)NC(=O)[C@@H]1CCCN1C(=O)[C@@H](NC(=O)[C@H](Cc1ccc(O)cc1)NC(=O)[C@@H](NC(=O)[C@@H]1CCCN1C(=O)[C@H](CCCNC(=N)N)NC(=O)[C@H](CC(N)=O)NC(=O)[C@H](CC(N)=O)NC(=O)CN)C(C)C)[C@@H](C)CC)C(=O)O` [GNNRPVYIPQPRPPHPRI], the MIC in test [1] was found to be 7.41 µM (≈ 15.6 µg/mL); in test [2], 23.7 µM (≈ 50 µg/mL); against Escherichia coli DC2 it was 1.85 µM (≈ 3.91 µg/mL); in test [3], 0.0949 µM (≈ 0.2 µg/mL); against Escherichia coli D31 it was 30.4 µM (≈ 64 µg/mL); in test [4], 0.0474 µM (≈ 0.0999 µg/mL). Also, the MIC in [5] stood at 0.0095 µM (≈ 0.02 µg/mL); in [6], 0.0474 µM (≈ 0.0999 µg/mL); in test [7], 0.925 µM (≈ 1.95 µg/mL); with Shigella flexneri CP87, 0.0474 µM (≈ 0.0999 µg/mL); in test [8], 0.925 µM (≈ 1.95 µg/mL); in test [9], 0.0949 µM (≈ 0.2 µg/mL). In addition, the MIC in [10] is ≥ 59.3 µM; in [11] it was 14.8 µM (≈ 31.3 µg/mL); in the test on Escherichia coli K-12, ≥ 100 µM; in [12], 0.949 µM (≈ 2 µg/mL); in [13] it was 30.4 µM (≈ 64 µg/mL); in [14], 0.0949 µM (≈ 0.2 µg/mL). The MIC was 0.0474 µM (≈ 0.0999 µg/mL) in [15], 0.465 µM (≈ 0.98 µg/mL) against Escherichia coli BL21AI, ≥ 100 µM in [16] and ≥ 71.1 µM in test [17].
On to `CC(C)C[C@H](NC(=O)[C@H](CC(C)C)NC(=O)[C@H](CCCCN)NC(=O)[C@H](CC(C)C)NC(=O)[C@H](CC(C)C)NC(=O)[C@H](CC(C)C)NC(=O)[C@H](CCCCN)NC(=O)[C@@H](N)CC(C)C)C(=O)N[C@@H](CCCCN)C(=O)O` [LKLLLKLLK], for which the MIC (against Spiroplasma citri R8A2; in [18]) was ≥ 100 µM throughout.
For `CC[C@H](C)[C@H](NC(=O)[C@H](CCCN=C(N)N)NC(=O)[C@H](CCC(=O)O)NC(=O)[C@H](CC(=O)O)NC(=O)CNC(=O)[C@H](CCCN=C(N)N)NC(=O)[C@H](CC(C)C)NC(=O)[C@@H](NC(=O)[C@H](CCC(=O)O)NC(=O)[C@H](Cc1ccccc1)NC(=O)[C@@H]1CSSC[C@H](NC(=O)[C@H](CCCCN)NC(=O)[C@H](CCSC)NC(=O)[C@@H](NC(=O)[C@H](CCC(=O)O)NC(=O)[C@@H](NC(=O)[C@H](CC(=O)O)NC(=O)CNC(=O)[C@H](CCCCN)NC(=O)[C@H](CC(N)=O)NC(=O)[C@H](CCSC)NC(=O)[C@@H]2CCCN2C(=O)[C@H](CO)NC(=O)[C@H](CC(N)=O)NC(=O)[C@@H](NC(=O)[C@@H]2CCCN2C(=O)[C@@H](N)CC(C)C)C(C)C)[C@@H](C)O)C(C)C)C(=O)N[C@@H]([C@@H](C)CC)C(=O)N[C@@H](C(C)C)C(=O)N[C@@H](CCC(=O)O)C(=O)N[C@@H](C(C)C)C(=O)N[C@@H]([C@@H](C)CC)C(=O)N[C@@H](CO)C(=O)N[C@@H](CC(=O)O)C(=O)N[C@@H]([C@@H](C)O)C(=O)N[C@@H](CC(C)C)C(=O)N[C@@H](CO)C(=O)N[C@@H](CCCCN)C(=O)N2CCC[C@H]2C(=O)N[C@@H](CO)C(=O)N2CCC[C@H]2C(=O)N[C@@H](CCSC)C(=O)N2CCC[C@H]2C(=O)N[C@@H](C(C)C)C(=O)N[C@@H](CO)C(=O)N[C@@H](CCCCN)C(=O)N[C@@H](CCC(=O)O)C(=O)N1)[C@@H](C)O)C(=O)N[C@@H](CC(C)C)C(=O)N[C@@H](CO)C(=O)N[C@H](C(=O)N[C@@H](CC(C)C)C(=O)N[C@@H](CCCN=C(N)N)C(=O)N[C@@H](Cc1cnc[nH]1)C(=O)N[C@@H](CCC(N)=O)C(=O)N[C@@H](CC(N)=O)C(=O)N[C@@H](CC(C)C)C(=O)N[C@@H](CC(C)C)C(=O)N[C@@H](CCCCN)C(=O)N[C@@H](CCC(=O)O)C(=O)N[C@@H](CC(C)C)C(=O)N[C@@H](CCC(N)=O)C(=O)N[C@@H](CC(=O)O)C(=O)N[C@@H](CC(C)C)C(=O)N[C@@H](C)C(=O)N[C@@H](CC(C)C)C(=O)N[C@@H](CCC(N)=O)C(=O)NCC(=O)N[C@@H](C)C(=O)N[C@@H](CCCCN)C(=O)N[C@@H](CCC(=O)O)C(=O)N[C@@H](CCCN=C(N)N)C(=O)N[C@H](C(=O)N[C@@H](Cc1cnc[nH]1)C(=O)N[C@@H](CCC(N)=O)C(=O)N[C@@H](CCC(N)=O)C(=O)O)[C@@H](C)O)[C@@H](C)CC` [LPVNSPMNKGDTEVMKCIVEVISDTLSKPSPMPVSKECFETLRGDERILSILRHQNLLKELQDLALQGAKERTHQQ], the MIC is 10 µM (≈ 85.8 µg/mL) in test [19]; 10 µM (≈ 85.8 µg/mL) against Candida albicans; 3 µM (≈ 25.8 µg/mL) in test [20]; 3 µM (≈ 25.8 µg/mL) in [21]; 2 µM (≈ 17.2 µg/mL) against Micrococcus luteus A270; 1 µM (≈ 8.58 µg/mL) in [22]. Also, the MIC turned out to be 0.2 µM (≈ 1.72 µg/mL) in the test on Bacillus megaterium MA, 1 µM (≈ 8.58 µg/mL) in test [23], 10 µM (≈ 85.8 µg/mL) in test [24] and 5 µM (≈ 42.9 µg/mL) in the test on Aspergillus fumigatus.
As for `CC[C@H](C)[C@H](NC(=O)[C@H](CCCCN)NC(=O)[C@H](CCCCN)NC(=O)[C@H](CC(C)C)NC(=O)[C@H](CCCCN)NC(=O)[C@H](CCC(=O)O)NC(=O)[C@H](CCCCN)NC(=O)[C@@H](NC(=O)[C@H](CCCCN)NC(=O)[C@H](CC(N)=O)NC(=O)[C@H](CCCN=C(N)N)NC(=O)[C@H](Cc1ccccc1)NC(=O)[C@H](CCCCN)NC(=O)[C@@H](N)CCCN=C(N)N)[C@@H](C)CC)C(=O)NCC(=O)O` [RKFRNKIKEKLKKIG], the MIC in [25] is 0.95 µM and 1.17 µM; in test [26], ≥ 130 µM.

The values above are taken from DBAASP.
